{"source": "patent US7517849B1", "about": "“Inhibition of ABC transporters by transmembrane domain analogs” (priority 1999, dated 2009)", "key": {"[1]": {"system": "Human colon cancer cells HCT15", "assay": "Sensitisation of HCT15 cells to adriamycin, sulforhodamine B toxicity assay", "type": "cell-based", "details": "HCT-15, 96 h, four days, without analog"}, "human P-gp": {"target": "T1, human P-gp (Homo sapiens, UniProt P08183)", "T1 construct": "P-gp-expressing KB 8-5 cells were trypsinized; endogenous in cells; host or cells: KB 8-5 cells", "T1 sequence (P08183 whole entry)": "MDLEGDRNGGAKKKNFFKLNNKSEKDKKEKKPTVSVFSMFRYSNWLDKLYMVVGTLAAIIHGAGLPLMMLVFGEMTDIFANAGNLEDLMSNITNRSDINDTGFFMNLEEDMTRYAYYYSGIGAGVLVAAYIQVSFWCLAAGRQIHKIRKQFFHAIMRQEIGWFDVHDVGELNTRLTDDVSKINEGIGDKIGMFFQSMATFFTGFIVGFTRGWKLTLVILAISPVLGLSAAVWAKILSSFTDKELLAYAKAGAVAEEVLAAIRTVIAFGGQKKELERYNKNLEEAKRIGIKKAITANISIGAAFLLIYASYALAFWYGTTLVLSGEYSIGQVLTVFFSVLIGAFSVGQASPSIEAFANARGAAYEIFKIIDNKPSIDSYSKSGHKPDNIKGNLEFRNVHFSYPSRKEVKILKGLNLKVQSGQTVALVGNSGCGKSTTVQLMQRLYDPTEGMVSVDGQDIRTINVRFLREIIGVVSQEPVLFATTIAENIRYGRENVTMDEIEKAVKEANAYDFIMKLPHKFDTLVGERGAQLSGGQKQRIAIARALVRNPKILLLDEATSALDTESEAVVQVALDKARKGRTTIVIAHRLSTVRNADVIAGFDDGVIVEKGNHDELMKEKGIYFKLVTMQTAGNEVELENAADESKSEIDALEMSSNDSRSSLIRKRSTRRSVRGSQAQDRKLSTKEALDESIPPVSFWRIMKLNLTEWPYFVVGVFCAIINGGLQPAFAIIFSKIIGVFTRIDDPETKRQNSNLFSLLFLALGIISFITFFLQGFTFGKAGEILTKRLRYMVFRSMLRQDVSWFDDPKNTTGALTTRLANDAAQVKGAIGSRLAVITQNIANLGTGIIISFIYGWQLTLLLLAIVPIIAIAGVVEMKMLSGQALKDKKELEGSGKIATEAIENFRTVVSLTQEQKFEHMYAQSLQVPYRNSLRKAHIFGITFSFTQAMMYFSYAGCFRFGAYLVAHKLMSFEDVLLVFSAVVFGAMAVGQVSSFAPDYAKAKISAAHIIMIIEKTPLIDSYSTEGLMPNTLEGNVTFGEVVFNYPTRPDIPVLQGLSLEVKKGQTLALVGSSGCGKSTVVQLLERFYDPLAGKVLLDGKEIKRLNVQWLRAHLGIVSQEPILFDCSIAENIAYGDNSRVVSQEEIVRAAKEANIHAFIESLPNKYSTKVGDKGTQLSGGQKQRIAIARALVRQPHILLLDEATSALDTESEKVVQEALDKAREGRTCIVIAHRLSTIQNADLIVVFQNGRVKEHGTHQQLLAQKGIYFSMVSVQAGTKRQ", "assay": "Fluorogenic substrate (rhodamine 123) accumulation/efflux assay by FACS in P-gp-expressing KB 8-5 cells", "type": "cell-based", "description": "The activity of the antagonists was tested in KB 8-5 cells which express human P-gp (described in Hrycyna et al.; Biochemistry 37:13660-73 (1998)). Analyses of P-gp transport activity were conducted by fluorogenic substrate accumulation assays utilizing fluorescence activated cell sorting (FACS) analysis, as described in Dey, S. et al., Biochemistry 38:6630-9 (1999). […] In initial screens, […] stock solutions of TM peptides in DMSO were diluted in medium to give 10-50 μM solutions. Active compounds were then tested at progressively lower concentrations.\nP-gp-expressing KB 8-5 cells were trypsinized, washed with 15 mL Iscove's modified Dulbecco's medium (IMEM), supplemented with 5% fetal bovine serum (FBS), and resuspended in the same medium. […] After the incubation, the cells were pelleted by centrifugation at 200×g and incubated further in their respective rhodamine-free media (+/−TM peptide) for an additional 45 min at 37° C. in the dark. Cells were then pelleted and resuspended in 400 μL of phosphate-buffered saline without Ca+2 or Mg+2 and immediately analyzed by fluorescence activated cell sorting (FACS).\nIncubations of KB 8-5 cells were carried out as described in the previous Example, except that varying concentrations of the analog called TM 6 (see Example 4, supra) were used as the TM polypeptide."}, "[2]": {"target": "human P-glycoprotein (product of MDR1 gene) (human, UniProt P08183 1-1280)", "sequence (P08183 whole entry S893A)": "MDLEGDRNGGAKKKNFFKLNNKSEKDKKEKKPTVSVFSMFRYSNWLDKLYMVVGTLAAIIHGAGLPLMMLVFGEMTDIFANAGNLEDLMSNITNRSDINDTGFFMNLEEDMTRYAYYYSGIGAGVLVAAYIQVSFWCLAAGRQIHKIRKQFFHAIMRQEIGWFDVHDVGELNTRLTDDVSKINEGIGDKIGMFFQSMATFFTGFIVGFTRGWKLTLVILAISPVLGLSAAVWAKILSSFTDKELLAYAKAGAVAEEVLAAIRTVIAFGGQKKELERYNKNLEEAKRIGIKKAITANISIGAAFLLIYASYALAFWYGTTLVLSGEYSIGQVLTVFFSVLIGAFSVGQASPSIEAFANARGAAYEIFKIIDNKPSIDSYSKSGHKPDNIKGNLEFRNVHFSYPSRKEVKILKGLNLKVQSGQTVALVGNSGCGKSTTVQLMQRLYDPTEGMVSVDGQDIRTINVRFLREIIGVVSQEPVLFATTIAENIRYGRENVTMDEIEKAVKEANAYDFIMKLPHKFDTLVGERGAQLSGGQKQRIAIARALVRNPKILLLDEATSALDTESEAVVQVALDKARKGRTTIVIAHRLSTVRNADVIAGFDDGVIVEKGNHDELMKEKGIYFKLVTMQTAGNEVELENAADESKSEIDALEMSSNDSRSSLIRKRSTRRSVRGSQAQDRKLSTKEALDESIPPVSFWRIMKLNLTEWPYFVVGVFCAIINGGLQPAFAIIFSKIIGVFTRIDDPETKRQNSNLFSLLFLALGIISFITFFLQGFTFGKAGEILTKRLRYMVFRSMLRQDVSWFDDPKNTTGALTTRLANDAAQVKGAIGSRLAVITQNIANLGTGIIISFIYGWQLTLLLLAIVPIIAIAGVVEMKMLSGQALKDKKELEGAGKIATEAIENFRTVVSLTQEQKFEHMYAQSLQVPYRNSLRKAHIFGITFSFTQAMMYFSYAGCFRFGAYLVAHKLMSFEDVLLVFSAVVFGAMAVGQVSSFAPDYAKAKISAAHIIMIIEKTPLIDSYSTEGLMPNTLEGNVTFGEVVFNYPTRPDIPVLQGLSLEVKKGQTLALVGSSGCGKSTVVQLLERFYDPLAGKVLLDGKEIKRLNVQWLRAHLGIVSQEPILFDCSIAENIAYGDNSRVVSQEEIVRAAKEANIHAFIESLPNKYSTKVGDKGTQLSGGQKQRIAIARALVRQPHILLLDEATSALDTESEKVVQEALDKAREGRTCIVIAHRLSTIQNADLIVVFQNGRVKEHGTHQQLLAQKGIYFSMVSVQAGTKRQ", "assay": "cell-based or functional assay"}}, "note": "Where two headings read alike, the source gives them in different places. Where no end group is shown, it is not given here."}
{"molecule": "COc1cccc2c1C(=O)c1c(O)c3c(c(O)c1C2=O)C[C@@](O)(C(=O)CO)C[C@@H]3O[C@H]1C[C@H](N)[C@H](O)[C@H](C)O1", "note": "[adriamycin]", "values": [{"measurement": "IC50", "setting": "[1]", "result": "150 ± 10", "unit": "nM"}]}
{"molecule": "DSGEYSIGQVLTVFFSVLIGAFSV [TM peptide 6]", "values": [{"measurement": "inhibition of rhodamine efflux", "setting": "human P-gp; 5 μM TM peptide, KB 8-5 cells, 0.5 μg/mL rhodamine 123, FACS", "result": "inhibited rhodamine efflux"}, {"measurement": "activity as inhibitor of the MDR1 ABC transporter (in words)", "setting": "human P-gp; cells expressing MDR1, efflux of substrates", "result": "most active"}, {"measurement": "inhibitory power compared with cyclosporin A", "setting": "human P-gp; positive control 5 μM cyclosporin A, KB 8-5 cells", "result": "not as powerful an inhibitor as cyclosporin A"}, {"measurement": "dose/response inhibition of P-gp", "setting": "human P-gp; varying concentrations, KB 8-5 cells, rhodamine 123 efflux", "result": "inhibited P-gp in a dose dependent manner"}]}
{"molecule": "ISIGAAFLLIYASYALAFWYGTTDD-OH [TM5 Analog 1]", "values": [{"measurement": "activity as inhibitor of the MDR1 ABC transporter (in words)", "setting": "human P-gp", "result": "active"}]}
{"molecule": "LLIYASYALAFWYGTTLVLSGEGSSG-OH [TM5 analog]", "values": [{"measurement": "activity as inhibitor of the MDR1 ABC transporter (in words)", "setting": "human P-gp", "result": "strongest inhibitor of the MDR1 ABC transporter yet tested"}, {"measurement": "inhibition of rhodamine 123 efflux compared with 5 micromolar cyclosporin", "setting": "human P-gp", "result": "same degree of inhibition of rhodamine 123 efflux from MDR1 expressing cells as 5 micromolar cyclosporin"}]}
{"molecule": "DSGEYSIGQVLTVFFSVLIGAFSV", "note": "[TM6 analog of MDR1 (synthetic peptide), Analog 1]", "values": [{"measurement": "IC50 of adriamycin (sulforhodamine B toxicity assay, HCT15 cells) in the presence of 1 µM TM6", "setting": "[2]", "result": 80, "unit": "nM"}]}
